Measured values as given in patent US9758401B2, “Digestion of biosolids in wastewater” (BCR ENVIRONMENTAL CORPORATION, priority 2009, dated 2017).

Key:
anaerobic digester = assay: Methane production in anaerobic digestion of chlorine dioxide pretreated WAS; details: versus non-pretreated WAS, measured
Method: Treatment of non-digested wastewater sludge with chlorine dioxide to solubilized the sludge and make nutrients bio-available and then feeding this material into an established anaerobic digester once the chlorine dioxide residual has been reduced improves gas (methane) production in an anaerobic digester. A generally accepted estimate for methane production at 35° C. is 0.25 kg methane per kg COD consumed. One kmol of methane is equivalent with a mass of 16 kg. Per definition, the COD equivalent of 1 kmol of methane is the mass of the amount of oxygen required for complete oxidation according to the formula: CH4+2O2→CO2+2H2O The mass of the 2O2 is 2 kmol of oxygen or 64 kg. Thus 64 kg Oxygen Demand is equivalent with 16 kg of methane, or 1 kg of oxygen demand (COD) is equivalent with 16/64=0.25 kg methane.
This increase in soluble COD represents 10-11% of the total COD concentration of the sludge, and represents a 2000% increase in soluble COD. The inventors believe that the higher the s-COD the higher capacity for methane production. The resulting increase in methane production as a result of this enhancement of anaerobic digestion has been measured as a greater than 50% increase utilizing this method, and is expected to be in the range of 100% or more over non-pretreated WAS. […]

[1] = tested on: Waste activated sludge (WAS); assay: Waste activated sludge solubilization by chlorine dioxide in digesters (soluble COD, NH4, PO4, volatile solids)
Method: Waste activated sludge (WAS) was obtained from a local municipal WWTP which removes cBOD only and uses a pure oxygen system. In order to achieve similar experiment conditions and be consistent with the previous pilot experiment, the solids concentration was adjusted to approximately 7 g/L. Three digesters were set up and treated with chlorine dioxide dosages of 100, 150 and 200 mg/L respectively. The digesters were operated for 24 hours. Samples were taken at time intervals of 10 min, 1 h, 6 h, 12 h and 24 h to represent different contact time.
This confirmed that chlorine dioxide contact time is the key factor for WAS solubilization. The increased soluble COD concentration can be expressed as 10-11% of TCOD which is quite significant. It was also observed that soluble COD concentration at contacting time of 6 hr was approximately 55-66% of the soluble COD at time 24 hrs. […] The increase of soluble COD corresponded to the volatile solids destruction of 4-6% with different chlorine dioxide treatment dosage.
This is considered insignificant. The PO4 increase was much higher and equaled 16 to 28.3 mg P/L after 24 h. Higher phosphorus than nitrogen release can be attributed to the chlorine dioxide treatment which breaks down the cell walls resulting in the release of unbound orthophosphate PO4—P. The nitrogen in the cells is in the form of organic nitrogen (amino acids) and enzymes are required to convert organic nitrogen to ammonia nitrogen. The low pH resulting from the chlorine dioxide treatment may have deactivated the enzyme activity, therefore no/insignificant NH4—N increase was detected.

fecal coliform = assay: Secondary sludge full-scale test: fecal coliform reduction by chlorine dioxide; type: cell-based; details: for Fecal coliform: secondary sludge, 10 minutes contact time
Method: Treatment of non-digested wastewater sludge with chlorine dioxide allows the material to meet Class B pathogen reduction requirements prior to digestion by reducing the fecal coliform concentrations to levels much lower than the Class B standard (<2,000,000 fecal coliform bacteria) with less than 15 minutes contact time. The resulting biosolids cake has no odor.
In this test, chlorine dioxide was generated on-site, and was injected (at varying concentrations) into a 100 gpm sludge flow passing through a 4 inch diameter pipe. The pipe length was sufficient to allow 10 minutes of contact time between the sludge and the chlorine dioxide prior to dewatering the material.

[2] = chlorine dioxide 100-200 mg/L, 24 h

[O][Cl+][O-] [chlorine dioxide]
increase in methane production (anaerobic digester): greater than 50%
soluble COD at contact time 6 hr as share of soluble COD at 24 hrs ([1]; chlorine dioxide 100-200 mg/L): 55-66%
increase in soluble COD [1, 2]: 2000%
increase in soluble COD as share of total COD (TCOD) [1, 2]: 10-11%
volatile solids destruction ([1]; different chlorine dioxide treatment dosage (100-200 mg/L)): 4-6%
fecal coliform concentrations after treatment (Class B standard) (fecal coliform; non-digested wastewater sludge, less than 15 minutes contact time): < 2,000,000 fecal coliform bacteria
Fecal coliform (fecal coliform; ClO2 dose rate 64 mg/L): 1,800 MPN/g
Fecal coliform (fecal coliform; ClO2 dose rate 80 mg/L): BDL
Fecal coliform (fecal coliform; ClO2 dose rate 96 mg/L): BDL
Fecal coliform (fecal coliform; ClO2 dose rate 128 mg/L): BDL
Fecal coliform (fecal coliform; ClO2 dose rate 160 mg/L): BDL*
